# Assay results taken from BindingDB's records for doi:10.7270/Q2B27SRF (Broad Institute, 2010).
# Biological target: Serine/threonine-protein kinase 33 (Homo sapiens, UniProt Q9BYT3)
# Test: inhibition of STK33 phosphorylation of MBP – biochemical, luminescence, cell-free, retest, dose response (AID 2821)
# Sequence of Serine/threonine-protein kinase 33 (Q9BYT3 whole entry): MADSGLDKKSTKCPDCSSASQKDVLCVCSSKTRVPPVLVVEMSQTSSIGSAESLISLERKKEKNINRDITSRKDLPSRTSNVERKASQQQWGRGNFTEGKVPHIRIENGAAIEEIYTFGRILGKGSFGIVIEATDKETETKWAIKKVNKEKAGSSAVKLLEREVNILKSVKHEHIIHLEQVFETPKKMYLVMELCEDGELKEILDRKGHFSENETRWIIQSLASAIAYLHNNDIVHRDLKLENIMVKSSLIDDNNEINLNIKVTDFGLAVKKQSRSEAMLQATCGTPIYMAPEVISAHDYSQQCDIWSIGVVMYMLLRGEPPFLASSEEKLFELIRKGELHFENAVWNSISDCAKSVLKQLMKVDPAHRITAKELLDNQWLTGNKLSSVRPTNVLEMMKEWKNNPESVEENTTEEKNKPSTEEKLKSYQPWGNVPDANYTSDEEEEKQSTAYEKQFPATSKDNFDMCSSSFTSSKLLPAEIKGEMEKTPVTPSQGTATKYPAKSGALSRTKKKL
row,SMILES,EC50 [µM]
1,"C[C@H]1CCCC(=O)CCCC=Cc2cc(O)cc(O)c2C(=O)O1 [(11S)-11-methyl-15,17-bis(oxidanyl)-12-oxabicyclo[12.4.0]octadeca-1(18),2,14,16-tetraene-7,13-dione]",44.6
2,"O=c1c(O)c(-c2ccc(O)c(O)c2)oc2cc(O)cc(O)c12 [2-(3,4-dihydroxyphenyl)-3,5,7-trihydroxy-chromone;hydrate]",12.4
3,CCn1c2ccc(C(C)N=O)cc2c2cc(C(C)N=O)ccc21 (stereo unspecified) [N-[1-[9-ethyl-6-(C-methyl-N-oxidanyl-carbonimidoyl)carbazol-3-yl]ethylidene]hydroxylamine],> 120
4,COc1cc(C=NNC2=c3ccccc3=NC2=O)ccc1O,9.23
5,"CC(N=Nc1ccnc2cc(Cl)ccc12)c1ccc(O)cc1 (stereo unspecified) [4-[1-[(7-chloro-4-quinolinyl)hydrazo]ethylidene]-1-cyclohexa-2,5-dienone]",22.9
6,COc1ccc(N=CC2C(=O)Nc3ccccc32)cc1OC (stereo unspecified),5.22
7,O=C1c2ccccc2C(=O)C1c1ccccn1,5.49
8,"COc1ccc(O)c(-c2nc(N)nc(N)n2)c1 [(6Z)-6-[4,6-bis(azanyl)-1H-1,3,5-triazin-2-ylidene]-4-methoxy-cyclohexa-2,4-dien-1-one]",8.14
9,COc1ccc(C(=O)ON=C(N)c2ccccc2)cc1,> 120
10,Cc1ccc(-c2nn(CCC(=O)O)cc2/C=C\C(=O)c2ccc(Br)cc2)cc1 [3-[4-[(Z)-3-(4-bromophenyl)-3-oxoprop-1-enyl]-3-(4-methylphenyl)pyrazol-1-yl]propanoic acid],19.3
11,"Oc1ccccc1-c1nc(NCCN2CCOCC2)c2ccccc2n1 [(6E)-6-[4-(2-morpholin-4-ylethylamino)-1H-quinazolin-2-ylidene]cyclohexa-2,4-dien-1-one]",14.3
12,"O=C1NCCCc2c1oc1ccc(O)cc21 [7-hydroxy-2,3,4,5-tetrahydro-[1]benzofuro[2,3-c]azepin-1-one]",3.71
13,S=C(NCc1ccccc1)Nc1ccc2cn[nH]c2c1 [1-(1H-indazol-6-yl)-3-(phenylmethyl)thiourea],> 120
14,"O=C(Nc1cccc(-c2cn3cccnc3n2)c1)c1ccc(Br)o1 [5-bromanyl-N-(3-imidazo[1,2-a]pyrimidin-2-ylphenyl)furan-2-carboxamide]",16
15,"CCCN1C=CC(=C2C(=O)c3ccccc3C2=O)C=C1 [2-(1-propyl-4-pyridinylidene)indene-1,3-dione]",8.93
16,"COc1ccc(-c2nc(-c3ccccn3)no2)cc1 [5-(4-methoxyphenyl)-3-(2-pyridinyl)-1,2,4-oxadiazole]",> 120
17,"NC(=O)c1sc2nc(-c3ccco3)ccc2c1N [3-Amino-6-furan-2-yl-thieno[2,3-b]pyridine-2-carboxylic acid amide]",25.5

row,SMILES,EC50 [µM]
1,Cc1cc(O)ccc1NS(=O)(=O)c1ccc2c3c(cccc13)C(=O)N2 [N-(2-methyl-4-oxidanyl-phenyl)-2-oxidanylidene-1H-benzo[cd]indole-6-sulfonamide],19.2
2,"COc1cc(C=Nn2c(S)nnc2-c2[nH]nc3c2CCC3)ccc1O [(4E)-2-methoxy-4-[[[5-sulfanylidene-3-(1,4,5,6-tetrahydrocyclopenta[c]pyrazol-3-yl)-1H-1,2,4-triazol-4-yl]amino]methylidene]cyclohexa-2,5-dien-1-one]",10.4
3,"CCN(CC)c1ccc(/C=C2/C(=O)c3ccc(C(=O)O)cc3C2=O)cc1 [(2Z)-2-[[4-(diethylamino)phenyl]methylidene]-1,3-dioxoindene-5-carboxylic acid]",3.83
4,"COc1ccc(C2=CC3=C(Br)C(=O)C(C)(O)C(=O)C3=CO2)cc1 (stereo unspecified) [5-bromanyl-3-(4-methoxyphenyl)-7-methyl-7-oxidanyl-isochromene-6,8-dione]",86
5,"O=C(Nc1nccs1)c1ccc(N2CCOCC2)c([N+](=O)[O-])c1 [4-morpholin-4-yl-3-nitro-N-(1,3-thiazol-2-yl)benzamide]",42.1
6,Cc1nn(C)cc1/C=C/C(=O)c1ccc(O)cc1,29
7,"COc1cc(C=C2SC(N)=NC2=O)ccc1O [(5Z)-2-azanyl-5-[(3-methoxy-4-oxidanyl-phenyl)methylidene]-1,3-thiazol-4-one]",0.936
8,COc1cccc(C(=O)ON=C(N)c2ccccn2)c1 [The compound has not trivial name.],22.7
9,O=C(Nc1ccccc1C(=O)O)c1cccc(C(=O)Nc2ccccc2C(=O)O)c1 [The compound has not trivial name.],59.6
10,COc1ccc2c(c1)C(=Cc1cnc[nH]1)C(=O)N2,7.73
11,NS(=O)(=O)c1ccc2c(c1)C(N=O)c1cc(S(N)(=O)=O)ccc1-2,4.91
12,"COc1cc2c(ccc3cc(OC)c(OC)c(O)c32)cc1O [3,6,7-trimethoxyphenanthrene-2,5-diol]",27.4
13,"COc1cc(C)c2c(c1C=O)Oc1c(c(C)c(O)c3c1C(O)OC3=O)OC2=O (stereo unspecified) [1,4-Dihydroxy-10-methoxy-5,8-dimethyl-3,7-dioxo-1,3-dihydro-7H-benzo[e]furo[3',4':3,4]benzo[b][1,4]dioxepine-11-carbaldehyde]",32
14,COc1cc(C=CC(=O)CC(=O)C=Cc2ccc(O)c(OC)c2)ccc1O,0.71
15,CCn1c2ccccc2c(=O)c2ccccc21 [10-ethyl-9-acridinone],16.7
16,"Oc1ccc(C=NNC(=S)NN=Cc2ccc(O)cc2)cc1 [1,3-bis[(4-oxo-1-cyclohexa-2,5-dienylidene)methylamino]thiourea]",40.9
17,CCn1c(/C=C/c2ccc([N+](=O)[O-])o2)nc2ccccc2c1=O [3-ethyl-2-[(E)-2-(5-nitro-2-furanyl)ethenyl]-4-quinazolinone],> 120

# Other lines, results leading:
row,EC50 [µM],SMILES
1,37.3,Cc1cccc(C(=N)NOC(=O)c2ccc3c(c2)OCO3)c1 [MLS000579340]
2,16.1,Nc1ccc(N=Nc2ccccc2O)c(N)c1 [SMR000476341]
3,11.5,O=C1C=CC(=CCc2ccnc3ccccc23)C=C1 [MLS000705243]
4,38.9,Cc1ccc2c(c1)/C(=C/c1ccco1)C(=O)N2 [SMR000312107]
5,27.6,COc1cc(C=Nn2c(-c3cc(C)[nH]n3)n[nH]c2=S)ccc1O [MLS000778764]
6,22.5,Cc1cccc(-c2nc3ccccc3c3nncn23)c1 [SMR000106108]
7,10.3,Cc1cc(N2CCN(C)CC2)nc2ccc(NC(=O)c3ccc(Br)o3)cc12 [SMR000022431]
8,26.6,c1cncc(Nc2nc(-c3cccnc3)cs2)c1 [SMR000077836]
9,49.7,CCNC(=S)Nc1ccc2cn[nH]c2c1 [SMR000261305]
10,35.8,CCCCCCCCCCCCCCCC[N+](C)(C)CCN(Cc1ccc(OC)cc1)c1ncccn1 [SMR001233380]
11,30.8,c1coc(C2Nc3ccccc3-c3nc4ccccc4n32)c1 (stereo unspecified) [MLS000055458]
12,< 0.1,Nc1nc(-c2cc(O)ccc2[N+](=O)[O-])cc(-c2ccccc2)c1[N+](=O)[O-] [SMR000504332]
13,7.93,COc1ccccc1NC(=O)Nc1ncccc1C [MLS000072334]
14,8.38,COc1cc(C(=O)NC2CCN(C)CC2)ccc1Nc1ncc2c(n1)N(C1CCC(O)CC1)CCC(=O)N2C (stereo unspecified) [MLS002232305]
15,> 120,N=c1c2c(-c3ccccc3)c(-c3ccccc3)oc2ncn1Cc1ccco1 [SMR000176070]
16,22.2,Cc1c(/C=C/C(=O)c2ccc(O)cc2)cnn1C [MLS000578554]
17,0.769,CCCn1c(NC(=O)c2cccc(S(=O)(=O)N3CCCC3)c2)nc2ccccc21 [MLS000057540]
